Experimental data published in EP3970494A1 (priority 2020, dated 2022).

Key:
Experiment in all cases: microbe, parasite or virus in culture
Type in all cases: cell-based
Septoria tritici = conditions: Zymoseptoria tritici, 168 h
Phytophthora infestans = conditions: 168 h, read-out: Fungal growth at 31 ppm (%) PHYTIN
Fusarium culmorum = conditions: 168 h

Which results are given for `CNC(=O)/C(=N/OC)c1cccc(C)c1CO/N=C(\C)c1cccc(C(F)(F)F)n1` [Example 2]?
activity at 31 ppm (Septoria tritici): 12%; activity at 31 ppm (Phytophthora infestans): 18%; activity at 31 ppm (Fusarium culmorum): 7%

With `CO/N=C(/C(=O)OC)c1cccc(C)c1CO/N=C(\C)c1cc(C(F)(F)F)ccn1` [Example 4, Methyl (2E)-2-methoxyimino-2-[3-methyl-2-[[(E)-1-[4-(trifluoromethyl)-2-pyridyl]ethylideneamino]oxymethyl]phenyl]acetate] as the compound, how does the activity at 31 ppm (Septoria tritici) read?
The activity at 31 ppm was 11%.

What about the activity at 31 ppm (Fusarium culmorum) of the same compound?
The activity at 31 ppm was 10%.

With `CNC(=O)/C(=N/OC)c1cccc(C)c1CO/N=C(\C)c1cc(C(F)(F)F)ccn1` [Example 5, (2E)-2-methoxyimino-N-methyl-2-[3-methyl-2-[[(E)-1-[4-(trifluoromethyl)-2-pyridyl]-ethylideneamino]oxymethyl]phenyl]acetamide] as the compound, how does the activity at 31 ppm (Septoria tritici) read?
The activity at 31 ppm was 19%.

And the activity at 31 ppm (Phytophthora infestans)?
Its activity at 31 ppm is 20%.

And the activity at 31 ppm (Fusarium culmorum)?
Its activity at 31 ppm is 8%.

For `CO/N=C(/C(=O)OC)c1cccc(C)c1CO/N=C(\C)c1cccc(C(F)F)n1` [Example 9], which activity at 31 ppm (Septoria tritici) is on record?
The activity at 31 ppm was 4%.

What about the activity at 31 ppm (Phytophthora infestans) of the same compound?
Its activity at 31 ppm is 5%.

How did the activity at 31 ppm (Septoria tritici) turn out when `CNC(=O)/C(=N/OC)c1cccc(C)c1CO/N=C(\C)c1cccc(C(F)F)n1` [Example 10] was run?
The activity at 31 ppm was 2%.

What about the activity at 31 ppm (Phytophthora infestans) of the same compound?
The activity at 31 ppm was 0%.

And the activity at 31 ppm (Fusarium culmorum)?
Its activity at 31 ppm is 9%.

Which activity at 31 ppm (Septoria tritici) does the source give for `CO/N=C(/C(=O)OC)c1cccc(C)c1CO/N=C(\C)c1ncccc1C(F)F` [Example 24] here?
Its activity at 31 ppm is 0%.

And the activity at 31 ppm (Phytophthora infestans)?
Its activity at 31 ppm is 18%.

With `CO/N=C(/C(=O)OC)c1cccc(C)c1CO/N=C(\C)c1cc(C)ccn1` [Example 25] as the compound, how does the activity at 31 ppm (Septoria tritici) read?
Its activity at 31 ppm is 0%.

What about the activity at 31 ppm (Phytophthora infestans) of the same compound?
Its activity at 31 ppm is 0%.

For `CO/N=C(/C(=O)OC)c1cccc(C)c1CO/N=C(\C)c1ncccc1C(F)(F)F` [Example 27, Methyl (2E)-2-methoxyimino-2-[3-methyl-2-[[(E)-1-[3-(trifluoromethyl)-2-pyridyl]-ethylideneamino]oxymethyl]phenyl]acetate], which activity at 31 ppm (Septoria tritici) is on record?
The activity at 31 ppm was 5%.

How did the activity at 31 ppm (Septoria tritici) turn out when `CO/N=C(\C)c1ccnc(/C(C)=N/OCc2c(C)cccc2/C(=N\OC)C(=O)OC)c1` [Example 29, Methyl (2E)-2-methoxyimino-2-[2-[[(E)-1-[4-[(E)-N-methoxy-C-methyl-carbonimidoyl]-2-pyridyl]ethylideneamino]oxymethyl]-3-methyl-phenyl]acetate] was run?
The activity at 31 ppm was 0%.

What about the activity at 31 ppm (Phytophthora infestans) of the same compound?
The activity at 31 ppm was 1%.

And the activity at 31 ppm (Fusarium culmorum)?
Its activity at 31 ppm is 12%.

What does the source list for `CNC(=O)/C(=N/OC)c1cccc(C)c1CO/N=C(\C)c1cc(/C(C)=N/OC)ccn1` [Example 30, (2E)-2-Methoxyimino-2-[2-[[(E)-1-[4-[(E)-N-methoxy-C-methyl-carbonimidoyl]-2-pyridyl]ethylideneamino]oxymethyl]-3-methyl-phenyl]-N-methyl-acetamide]?
activity at 31 ppm (Septoria tritici): 2%; activity at 31 ppm (Phytophthora infestans): 0%; activity at 31 ppm (Fusarium culmorum): 10%

With `CO/N=C(\C)c1cccc(/C(C)=N/OCc2c(C)cccc2/C(=N\OC)C(=O)OC)n1` [Example 31] as the compound, how does the activity at 31 ppm (Septoria tritici) read?
Its activity at 31 ppm is 13%.

How did the activity at 31 ppm (Septoria tritici) turn out when `CNC(=O)/C(=N/OC)c1cccc(C)c1CO/N=C(\C)c1ncccc1C(F)F` [Example 33] was run?
Its activity at 31 ppm is 4%.

What about the activity at 31 ppm (Phytophthora infestans) of the same compound?
The activity at 31 ppm was 14%.

What about the activity at 31 ppm (Fusarium culmorum) of the same compound?
The activity at 31 ppm was 11%.

What does the source list for `CO/N=C(/C(=O)OC)c1cccc(C)c1CO/N=C(\C)c1cc(C(F)F)ccn1` [Example 34]?
activity at 31 ppm (Septoria tritici): 0%; activity at 31 ppm (Phytophthora infestans): 1%; activity at 31 ppm (Fusarium culmorum): 10%

Which activity at 31 ppm (Septoria tritici) does the source give for `CNC(=O)/C(=N/OC)c1cccc(C)c1CO/N=C(\C)c1cc(C(F)F)ccn1` [Example 37] here?
Its activity at 31 ppm is 3%.

And the activity at 31 ppm (Phytophthora infestans)?
The activity at 31 ppm was 0%.

What about the activity at 31 ppm (Fusarium culmorum) of the same compound?
The activity at 31 ppm was 12%.

Which results are given for `CNC(=O)/C(=N/OC)c1cccc(C)c1CO/N=C(\C)c1ncsc1C(F)(F)F` [Example 41]?
activity at 31 ppm (Septoria tritici): 2%; activity at 31 ppm (Phytophthora infestans): 0%; activity at 31 ppm (Fusarium culmorum): 9%

How did the activity at 31 ppm (Septoria tritici) turn out when `CNC(=O)/C(=N/OC)c1cccc(C)c1CO/N=C(\C)c1cc(C(F)(F)F)cc(Cl)n1` [Example 43] was run?
Its activity at 31 ppm is 13%.

What about the activity at 31 ppm (Phytophthora infestans) of the same compound?
Its activity at 31 ppm is 9%.

And the activity at 31 ppm (Fusarium culmorum)?
Its activity at 31 ppm is 14%.

`CO/N=C(/C(=O)OC)c1cccc(C)c1CO/N=C(\C)c1cc(C(F)(F)F)cc(C)n1` [Example 46] was tested. Which activity at 31 ppm (Septoria tritici) did it give?
The activity at 31 ppm was 0%.

What about the activity at 31 ppm (Phytophthora infestans) of the same compound?
The activity at 31 ppm was 0%.

And the activity at 31 ppm (Fusarium culmorum)?
The activity at 31 ppm was 1%.

Which results are given for `CO/N=C(/C(=O)OC)c1cccc(C)c1CO/N=C(\C)c1ccnc(C(F)(F)F)c1` [Example 47]?
activity at 31 ppm (Septoria tritici): 0%; activity at 31 ppm (Phytophthora infestans): 0%; activity at 31 ppm (Fusarium culmorum): 8%

`CO/N=C(/C(=O)OC)c1cccc(C)c1CO/N=C(\C)c1cc(C#N)ccn1` [Example 54] was tested. Which activity at 31 ppm (Septoria tritici) did it give?
Its activity at 31 ppm is 4%.

And the activity at 31 ppm (Phytophthora infestans)?
Its activity at 31 ppm is 2%.

And the activity at 31 ppm (Fusarium culmorum)?
The activity at 31 ppm was 14%.

For `CNC(=O)/C(=N/OC)c1cccc(C)c1CO/N=C(\C)c1cc(C#N)ccn1` [Example 55], which activity at 31 ppm (Septoria tritici) is on record?
Its activity at 31 ppm is 8%.

And the activity at 31 ppm (Phytophthora infestans)?
Its activity at 31 ppm is 0%.

And the activity at 31 ppm (Fusarium culmorum)?
Its activity at 31 ppm is 12%.

With `CO/N=C(/C(=O)OC)c1cccc(C)c1CO/N=C(\C)c1cc(C(F)(F)F)nc(C)n1` [Example 57] as the compound, how does the activity at 31 ppm (Septoria tritici) read?
Its activity at 31 ppm is 14%.

And the activity at 31 ppm (Phytophthora infestans)?
Its activity at 31 ppm is 2%.

And the activity at 31 ppm (Fusarium culmorum)?
The activity at 31 ppm was 12%.

With `CO/N=C(/C(=O)OC)c1cccc(C)c1CO/N=C(\C)c1cc(C#N)cc(Cl)n1` [Example 64] as the compound, how does the activity at 31 ppm (Septoria tritici) read?
Its activity at 31 ppm is 17%.

What about the activity at 31 ppm (Phytophthora infestans) of the same compound?
The activity at 31 ppm was 21%.

`CO/N=C(/C(=O)OC)c1cccc(C)c1CO/N=C(\C)c1cccc(C)n1` [Example 65] was tested. Which activity at 31 ppm (Septoria tritici) did it give?
Its activity at 31 ppm is 0%.

And the activity at 31 ppm (Phytophthora infestans)?
The activity at 31 ppm was 1%.

How did the activity at 31 ppm (Septoria tritici) turn out when `CNC(=O)/C(=N/OC)c1cccc(C)c1CO/N=C(/c1cc(C(F)(F)F)ccn1)C1CC1` [Example 70, (2E)-2-[2-[[(E)-[cyclopropyl-[4-(trifluoromethyl)-2-pyridyl]methylene]amino]oxymethyl]-3-methyl-phenyl]-2-methoxyimino-N-methyl-acetamide] was run?
Its activity at 31 ppm is 0%.

What about the activity at 31 ppm (Phytophthora infestans) of the same compound?
The activity at 31 ppm was 0%.

What about the activity at 31 ppm (Fusarium culmorum) of the same compound?
The activity at 31 ppm was 12%.

With `CO/N=C(/C(=O)OC)c1cccc(C)c1CO/N=C(/c1cc(C(F)(F)F)ccn1)C1CC1` [Example 72, Methyl (2E)-2-[2-[[(E)-[cyclopropyl-[4-(trifluoromethyl)-2-pyridyl]methylene]amino]-oxymethyl]-3-methyl-phenyl]-2-methoxyimino-acetate] as the compound, how does the activity at 31 ppm (Septoria tritici) read?
Its activity at 31 ppm is 4%.

What about the activity at 31 ppm (Phytophthora infestans) of the same compound?
The activity at 31 ppm was 6%.

What about the activity at 31 ppm (Fusarium culmorum) of the same compound?
Its activity at 31 ppm is 14%.

Which results are given for `CO/N=C(/C(=O)OC)c1cccc(C)c1CO/N=C(\C)c1ncccc1F` [Example 74]?
activity at 31 ppm (Septoria tritici): 21%; activity at 31 ppm (Phytophthora infestans): 0%

For `CO/N=C(/C(=O)OC)c1cccc(C)c1CO/N=C(\C)c1cncc(C(F)(F)F)c1` [Example 84, methyl (2E)-2-methoxyimino-2-[3-methyl-2-[[(E)-1-[5-(trifluoromethyl)-3-pyridyl]ethylideneamino]oxymethyl]phenyl]acetate], which activity at 31 ppm (Septoria tritici) is on record?
The activity at 31 ppm was 1%.

What about the activity at 31 ppm (Phytophthora infestans) of the same compound?
The activity at 31 ppm was 0%.

And the activity at 31 ppm (Fusarium culmorum)?
Its activity at 31 ppm is 12%.

What does the source list for `CO/N=C(/C(=O)OC)c1cccc(C)c1CO/N=C(\C)c1cnc(Cl)c(Cl)c1` [Example 87]?
activity at 31 ppm (Septoria tritici): 1%; activity at 31 ppm (Phytophthora infestans): 0%; activity at 31 ppm (Fusarium culmorum): 17%

How did the activity at 31 ppm (Septoria tritici) turn out when `CNC(=O)/C(=N/OC)c1cccc(C)c1CO/N=C(\C)c1cnc(Cl)c(Cl)c1` [Example 88] was run?
The activity at 31 ppm was 9%.

What about the activity at 31 ppm (Phytophthora infestans) of the same compound?
The activity at 31 ppm was 0%.

And the activity at 31 ppm (Fusarium culmorum)?
The activity at 31 ppm was 14%.

Which activity at 31 ppm (Septoria tritici) does the source give for `CNC(=O)/C(=N/OC)c1cccc(C)c1CO/N=C(\C)c1cccc(SC)n1` [Example 93] here?
The activity at 31 ppm was 13%.

And the activity at 31 ppm (Phytophthora infestans)?
The activity at 31 ppm was 0%.

And the activity at 31 ppm (Fusarium culmorum)?
Its activity at 31 ppm is 17%.

For `CO/N=C(/C(=O)OC)c1cccc(C)c1CO/N=C(\C)c1ccnc(SC)c1` [Example 94], which activity at 31 ppm (Septoria tritici) is on record?
The activity at 31 ppm was 1%.

And the activity at 31 ppm (Phytophthora infestans)?
The activity at 31 ppm was 1%.

What about the activity at 31 ppm (Fusarium culmorum) of the same compound?
The activity at 31 ppm was 15%.

Which results are given for `CO/N=C(/C(=O)OC)c1cccc(C)c1CO/N=C(\C)c1cnc(C(F)(F)F)cn1` [Example 96, Methyl (2E)-2-methoxyimino-2-[3-methyl-2-[[(E)-1-[5-(trifluoromethyl)pyrazin-2-yl]ethylideneamino]oxymethyl]phenyl]acetate]?
activity at 31 ppm (Septoria tritici): 18%; activity at 31 ppm (Phytophthora infestans): 0%; activity at 31 ppm (Fusarium culmorum): 13%

`CO/N=C(/C(=O)OC)c1cccc(C)c1CO/N=C(\C)c1cccc(F)n1` [Example 106] was tested. Which activity at 31 ppm (Septoria tritici) did it give?
The activity at 31 ppm was 13%.

And the activity at 31 ppm (Phytophthora infestans)?
The activity at 31 ppm was 0%.

`CNC(=O)/C(=N/OC)c1cccc(C)c1CO/N=C(\C)c1ncnc(Cl)c1F` [Example 108] was tested. Which activity at 31 ppm (Septoria tritici) did it give?
Its activity at 31 ppm is 0%.

And the activity at 31 ppm (Phytophthora infestans)?
Its activity at 31 ppm is 0%.

And the activity at 31 ppm (Fusarium culmorum)?
Its activity at 31 ppm is 8%.

Which results are given for `CO/N=C(/C(=O)OC)c1cccc(C)c1CO/N=C(\C)c1cc(C(F)(F)F)ncn1` [Example 113, Methyl (2E)-2-methoxyimino-2-[3-methyl-2-[[(E)-1-[6-(trifluoromethyl)pyrimidin-4-yl]ethylideneamino]oxymethyl]phenyl]acetate]?
activity at 31 ppm (Septoria tritici): 0%; activity at 31 ppm (Phytophthora infestans): 0%; activity at 31 ppm (Fusarium culmorum): 1%

For `CO/N=C(/C(=O)OC)c1cccc(C)c1CO/N=C(\C)c1cccnc1` [Example 131], which activity at 31 ppm (Septoria tritici) is on record?
Its activity at 31 ppm is 17%.

What about the activity at 31 ppm (Phytophthora infestans) of the same compound?
Its activity at 31 ppm is 0%.
